Common to all, as to experiment: DTP human tumour cell line panel, 48 h
Assay [1] concerns HT29 colon.
For assay [2], the system named is TK-10 renal.
In assay [3] the test system is HOP-92 NSCLC.
The test system of assay [4] is HOP-62 NSCLC.
Assay [5] concerns MALME-3M melanoma.
The test system of assay [6] is T-47D breast.
Assay [7] relates to MOLT-4 leukemia.
The test system of assay [8] is SR leukemia.

SMILES strings stand for the structures. “And” between values parts separate entries of the source, which are not always exact repeats. Identical values can stand only once.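 Step 1: Grow cells in 96-well plates. Step 2: Expose to compound for 48 hours at 5 concentrations. Step 3: Interpolate endpoints linearly; if unreached, use highest concentration. The concentration for 50% growth inhibition is given as GI50. TGI: concentration producing complete growth inhibition.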

A word on the GI50: it is the concentration giving 50% growth inhibition. The TGI is the concentration at which net growth stops. The low end stands for greater sensitivity of the cells, the high end for lower sensitivity of the cells. In the case of `Fc1ccc(C2C3CCOc4c(ccc5ccccc45)C3=NN2c2ccccc2)cc1` (stereo not given), the GI50 in assay [1] is more than 100 µM; in assay [2], more than 65 µM; in assay [3], more than 84.6 µM; in assay [4], more than 100 µM; in assay [5], more than 38.7 µM; in assay [6], 25.4 µM. The results for the GI50 in assay [7] and in assay [8] were 30.7 µM and 13.3 µM, respectively. The TGI was more than 100 µM in assay [1]; more than 100 µM in assay [2]; more than 100 µM in assay [3]; more than 100 µM in assay [4]; more than 100 µM in assay [5]; more than 94.8 µM in assay [6]. Moreover, the TGI in assay [7] and in assay [8] was more than 100 µM throughout.

On to `Cc1cc2c(cc1Cl)N1C(=O)NS(=O)(=O)N=C1NS2(=O)=O`, for which the GI50 in assay [1], in assay [2], in assay [3], in assay [4], in assay [5] and in assay [6] was more than 100 µM in each case. In addition, the GI50 in assay [7] and in assay [8] was more than 100 µM in each case. Also, the TGI in assay [1], in assay [2], in assay [3], in assay [4], in assay [5] and in assay [6] was more than 100 µM throughout. The TGI in assay [7] and in assay [8] was more than 100 µM throughout.

Take `COc1c2ccccc2c(O)c2c(=O)ccn(C)c12`: the GI50 is 16.5 µM in assay [1]; 11.3 µM in assay [2]; 25.6 µM in assay [3]; 5.48 µM in assay [4]; 2.37 µM in assay [5]; 31.7 µM in assay [6]. The GI50 in assay [7] is 17.9 µM; in assay [8], 8.94 µM. In addition, the TGI in assay [1] is more than 100 µM; in assay [2], 55.8 µM; in assay [3] it was 91.1 µM; in assay [4] it was 33 µM; in assay [5] it was 5.46 µM; in assay [6], more than 100 µM. Also, the figures for the TGI in assay [7] and in assay [8] were more than 83.8 µM and 81.8 µM, respectively.

Take `OCc1ccc(N(Cc2ccc(F)cc2)CC2CCC2)cc1Cl`: the GI50 in assay [1] is 12.9 µM; in assay [2], 0.705 µM; in assay [3], 0.839 µM; in assay [4] it was 10 µM; in assay [5] it was 16.3 µM; in assay [6] it was 2.11 µM. Besides, the GI50 in assay [7] is 13.7 µM; in assay [8], 11.7 µM. Also, the TGI came to 26.2 µM in assay [1]; 3.65 µM in assay [2]; 12.8 µM in assay [3]; 22.7 µM in assay [4]; 31.8 µM in assay [5]; 12.2 µM in assay [6]. Also, the values for the TGI in assay [7] and in assay [8] were 33.4 µM and 29 µM, respectively.

As to `COc1cc(NC(=O)c2ccccc2Nc2ccnc(C(F)(F)F)c2)cc(OC)c1OC`, the GI50 is 65 µM in assay [1]; 72.3 µM in assay [2]; 23.2 µM in assay [3]; 88.9 µM in assay [4]; 82.2 µM in assay [5]; 17.7 µM in assay [6]. Besides, the GI50 in assay [7] is 36.9 µM; in assay [8], 47.3 µM. For the same compound, the TGI was more than 100 µM in assay [1]; more than 100 µM in assay [2]; 74.1 µM in assay [3]; more than 100 µM in assay [4]; more than 100 µM in assay [5]; 91.9 µM in assay [6]. Moreover, the TGI in assay [7] and in assay [8] was more than 100 µM each time.

As for `CCN(CCO)CCCOc1ccc2c(Nc3cc(CC(=O)Nc4cccc(F)c4)[nH]n3)ncnc2c1`, the GI50 is 13.4 µM in assay [1]; more than 67.8 µM in assay [2]; 10.6 µM in assay [3]; 16.3 µM in assay [4]; 8.04 µM in assay [5]; 13.9 µM in assay [6]. In assay [7], the GI50 is 3.38 µM. In addition, the TGI in assay [1] was 66.2 µM and > 10 µM; in assay [2], more than 100 µM; in assay [3], 33.3 µM; in assay [4] it was more than 88.6 µM; in assay [5], 26.8 µM; in assay [6] it was 42.7 µM and > 2.45 µM. The TGI is more than 88.4 µM in assay [7]; 28 µM and > 3.87 µM in assay [8].

Consider `O=c1c2cc(O)c(O)cc2oc2cc(O)c(C3OC(CO)C(O)C(O)C3O)c(O)c12` (stereo not given), for which the TGI in assay [1], in assay [2], in assay [3], in assay [4], in assay [5] and in assay [6] was more than 100 µM throughout. In addition, the TGI in assay [7] and in assay [8] was more than 100 µM in each case.

Regarding `COc1cc(NC(C)CCCN2C(=O)c3ccccc3C2=O)c2ncccc2c1OC` (stereo not given), the GI50 in assay [1] is 36.3 µM; in assay [2], 40.5 µM; in assay [3] it was 18.2 µM; in assay [4], 52.6 µM; in assay [5], 22.9 µM; in assay [6], 35.7 µM. Besides, the GI50 in assay [7] was 38.3 µM; in assay [8] it was 23.7 µM. Moreover, the TGI in assay [1] is more than 100 µM; in assay [2], more than 100 µM; in assay [3], more than 100 µM; in assay [4] it was more than 100 µM; in assay [5], 58.3 µM; in assay [6], more than 100 µM. Besides, the TGI in assay [7] and in assay [8] was more than 100 µM each time.

Take `CS(=O)(=O)N1CCc2c(-c3cnc(N)nc3)nc(N3CCOCC3)nc21`: the GI50 in assay [1] is 0.26 µM and 0.307 µM; in assay [2], 0.197 µM and 0.221 µM; in assay [3], 0.102 µM and 0.112 µM; in assay [4] it was 1.26 µM and 0.795 µM; in assay [5], 0.619 µM and 0.488 µM; in assay [6], 0.041 µM and 0.0468 µM. For the same compound, the GI50 was 0.92 µM and 0.807 µM in assay [7]; 2.08 µM and 1.96 µM in assay [8]. For the same compound, the TGI in assay [1] was more than 77.5 µM; in assay [2] it was 3.25 µM and 4.09 µM; in assay [3] it was 0.641 µM and 1.35 µM; in assay [4] it was > 10 µM and 11.8 µM; in assay [5], > 6.87 µM and 4.87 µM; in assay [6] it was 0.399 µM and 0.463 µM. Moreover, the TGI in assay [7] and in assay [8] was more than 100 µM in each case.

The values are drawn from PubChem BioAssay (NCI).
